Key:
Format in all cases: in vivo
Nightshade = assay: Test C preemergence; details: scale 0 to 100, 0 no effect, 100 complete control
Text: (§1) Seeds of plant species selected from bermudagrass (Cynodon dactylon), Surinam grass (Brachiaria decumbens), cocklebur (Xanthium strumarium), corn (Zea mays), crabgrass (Digitaria sanguinalis), woolly cupgrass (Eriochloa villosa), giant foxtail (Setaria faberii), goosegrass (Eleusine indica), johnsongrass (Sorghum halepense), kochia (Kochia scoparia), lambsquarters (Chenopodium album), morningglory (Ipomoea hederacea), yellow nutsedge (Cyperus esculentus), pigweed (Amaranthus retroflexus), common ragweed (Ambrosia elatior), soybean (Glycine max) and velvetleaf (Abutilon theophrasti) were planted and treated preemergence with test chemicals formulated in a non-phytotoxic solvent mixture which included a surfactant.
(§2) At the same time, plants selected from these crop and weed species and also winter barley (Hordeum vulgare), blackgrass (Alopecurus myosuroides), canary grass (Phalaris minor), chickweed (Stellaria media), downy brome (Bromus tectorum), green foxtail (Setaria viridis), Italian ryegrass (Lolium multiflorum), wheat (Triticum aestivum), wild oat (Avena fatua) and windgrass (Apera spica-venti) were treated with postemergence applications of some of the test chemicals formulated in the same manner. Plants ranged in height from 2 to 18 cm (1- to 4-leaf stage) for postemergence treatments. Plant species in the flooded paddy test consisted of rice (Oryza saliva), smallflower flatsedge (Cyperus difformis), duck salad (Heteranthera limosa) and barnyardgrass (Echinochloa crus-galli) grown to the 2-leaf stage for testing. Treated plants and controls were maintained in a greenhouse for 12 to 14 days, after which time all species were compared to controls and visually evaluated. Plant response ratings, summarized in Table C, are based on a scale of 0 to 100 where 0 is no effect and 100 is complete control. A dash (-) response means no test result.

[1] = system: bermudagrass (Cynodon dactylon); assay: Test C preemergence; details: for Plant response rating, Bermudagrass: scale 0 to 100, 0 no effect, 100 complete control; for Plant response rating (0 to 100 where 0 is no effect and 100 is complete control), Bermudagrass: visual evaluation after 12 to 14 days
Text: as §1, §2

[2] = system: Surinam grass (Brachiaria decumbens); assay: Test C preemergence; details: for Plant response rating, Surinam grass: scale 0 to 100, 0 no effect, 100 complete control; for Plant response rating (0 to 100), Surinam grass: visual evaluation after 12 to 14 days
Text: as §1, §2

[3] = system: cocklebur (Xanthium strumarium); assay: Test C preemergence; details: for Plant response rating, Cocklebur: scale 0 to 100, 0 no effect, 100 complete control; for Plant response rating (0 to 100), Cocklebur: visual evaluation after 12 to 14 days
Text: as §1, §2

corn (Zea mays) = assay: Test C preemergence; details: for Plant response rating, Corn: scale 0 to 100, 0 no effect, 100 complete control; for Plant response rating (0 to 100), Corn: visual evaluation after 12 to 14 days
Text: as §1, §2

[4] = system: giant foxtail (Setaria faberii); assay: Test C preemergence; details: for Plant response rating, Foxtail, Giant: scale 0 to 100, 0 no effect, 100 complete control; for Plant response rating (0 to 100), Foxtail, Giant: visual evaluation after 12 to 14 days
Text: as §1, §2

[5] = system: woolly cupgrass (Eriochloa villosa); assay: Test C preemergence; details: for Plant response rating, Cupgrass, Woolly: scale 0 to 100, 0 no effect, 100 complete control; for Plant response rating (0 to 100), Cupgrass, Woolly: visual evaluation after 12 to 14 days
Text: as §1, §2

[6] = system: goosegrass (Eleusine indica); assay: Test C preemergence; details: for Plant response rating, Goosegrass: scale 0 to 100, 0 no effect, 100 complete control; for Plant response rating (0 to 100), Goosegrass: visual evaluation after 12 to 14 days
Text: as §1, §2

[7] = system: morningglory (Ipomoea hederacea); assay: Test C preemergence; details: for Plant response rating, Morningglory: scale 0 to 100, 0 no effect, 100 complete control
Text: as §1, §2

[8] = system: pigweed (Amaranthus retroflexus); assay: Test C preemergence; details: preemergence; for Plant response rating, Pigweed: scale 0 to 100, 0 no effect, 100 complete control
Text: as §1, §2

[9] = system: common ragweed (Ambrosia elatior); assay: Test C preemergence; details: preemergence; for Plant response rating, Ragweed, Common: scale 0 to 100, 0 no effect, 100 complete control
Text: as §1, §2

[10] = system: yellow nutsedge (Cyperus esculentus); assay: Test C preemergence; details: for Plant response rating, Nutsedge: scale 0 to 100, 0 no effect, 100 complete control
Text: as §1, §2

[11] = system: lambsquarters (Chenopodium album); assay: Test C preemergence; details: for Plant response rating, Lambsquarters: scale 0 to 100, 0 no effect, 100 complete control
Text: as §1, §2

[12] = system: velvetleaf (Abutilon theophrasti); assay: Test C preemergence; details: preemergence; for Plant response rating, Velvetleaf: scale 0 to 100, 0 no effect, 100 complete control
Text: as §1, §2

[13] = system: johnsongrass (Sorghum halepense); assay: Test C preemergence; details: for Plant response rating, Johnsongrass: scale 0 to 100, 0 no effect, 100 complete control; for Plant response rating (0 to 100), Johnsongrass: visual evaluation after 12 to 14 days
Text: as §1, §2

soybean (Glycine max) = assay: Test C preemergence; details: preemergence; for Plant response rating, Soybean: scale 0 to 100, 0 no effect, 100 complete control
Text: as §1, §2

[14] = system: crabgrass (Digitaria sanguinalis); assay: Test C preemergence; details: for Plant response rating, Crabgrass: scale 0 to 100, 0 no effect, 100 complete control; for Plant response rating (0 to 100), Crabgrass: visual evaluation after 12 to 14 days
Text: as §1, §2

kochia (Kochia scoparia) = assay: Test C preemergence; details: for Plant response rating, Kochia: scale 0 to 100, 0 no effect, 100 complete control; for Plant response rating (0 to 100), Kochia: visual evaluation after 12 to 14 days
Text: as §1, §2

[15] = system: smallflower flatsedge (Cyperus difformis); assay: Test C flooded paddy test; details: for Flatsedge plant response rating: Flooded Paddy, scale 0 to 100, 0 no effect, 100 complete control; for Plant response rating, Flatsedge: flooded paddy test, scale 0 to 100 (0 no effect, 100 complete control)
How it was run: (§3)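 Visual injury score, 0 (no effect) to 100 (complete control), relative to controls. Paddy plants treated at 2-leaf stage; greenhouse hold 12–14 d before rating.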

[16] = system: barnyardgrass (Echinochloa crus-galli); assay: Test C flooded paddy test; details: for Barnyardgrass plant response rating: Flooded Paddy, scale 0 to 100, 0 no effect, 100 complete control; for Plant response rating, Barnyardgrass: flooded paddy test, scale 0 to 100 (0 no effect, 100 complete control)
How it was run: as §3

[17] = system: duck salad (Heteranthera limosa); assay: Test C flooded paddy test; details: for Ducksalad plant response rating: Flooded Paddy, scale 0 to 100, 0 no effect, 100 complete control; for Plant response rating, Ducksalad: flooded paddy test, scale 0 to 100 (0 no effect, 100 complete control)
How it was run: as §3

[18] = preemergence, Rate 500 g/ha, visual evaluation after 12 to 14 days
[19] = Rate 500 g/ha, visual evaluation after 12 to 14 days

CCOC(=O)c1cccc(N2CCC(n3ccc(C(C)(C)C)n3)C2=O)c1 (stereo not shown) [Compound 72]
Plant response rating, Nightshade (Nightshade; Rate 62 g/ha): 30 | Plant response rating, Nightshade (Nightshade; Rate 125 g/ha): 10 | Plant response rating, Nightshade (Nightshade; Rate 250 g/ha): 30 | Plant response rating, Bermudagrass ([1]; Rate 62 g/ha): 0 | Plant response rating (0 to 100 where 0 is no effect and 100 is complete control), Bermudagrass ([1]; preemergence, Rate 250 g/ha): 90 | Plant response rating (0 to 100 where 0 is no effect and 100 is complete control), Bermudagrass ([1]; preemergence, Rate 500 g/ha): 100 | Plant response rating, Bermudagrass ([1]; preemergence, Rate 125 g/ha): 90 | Plant response rating, Surinam grass ([2]; Rate 62 g/ha): 0 | Plant response rating (0 to 100), Surinam grass ([2]; preemergence, Rate 250 g/ha): 80 | Plant response rating (0 to 100), Surinam grass ([2]; preemergence, Rate 500 g/ha): 50 | Plant response rating, Surinam grass ([2]; preemergence, Rate 125 g/ha): 30 | Plant response rating, Cocklebur ([3]; Rate 62 g/ha): 0 | Plant response rating (0 to 100), Cocklebur ([3]; preemergence, Rate 250 g/ha): 10 | Plant response rating (0 to 100), Cocklebur ([3]; preemergence, Rate 500 g/ha): 70 | Plant response rating, Cocklebur ([3]; preemergence, Rate 125 g/ha): 30 | Plant response rating, Corn (corn (Zea mays); Rate 62 g/ha): 0 | Plant response rating (0 to 100), Corn (corn (Zea mays); preemergence, Rate 250 g/ha): 0 | Plant response rating (0 to 100), Corn (corn (Zea mays); preemergence, Rate 500 g/ha): 0 | Plant response rating, Corn (corn (Zea mays); preemergence, Rate 125 g/ha): 0 | Plant response rating, Foxtail, Giant ([4]; Rate 62 g/ha): 30 | Plant response rating (0 to 100), Foxtail, Giant ([4]; preemergence, Rate 250 g/ha): 70 | Plant response rating (0 to 100), Foxtail, Giant ([4]; preemergence, Rate 500 g/ha): 90 | Plant response rating, Foxtail, Giant ([4]; preemergence, Rate 125 g/ha): 70 | Plant response rating, Cupgrass, Woolly ([5]; Rate 62 g/ha): 0 | Plant response rating (0 to 100), Cupgrass, Woolly ([5]; preemergence, Rate 250 g/ha): 80 | Plant response rating (0 to 100), Cupgrass, Woolly ([5]; preemergence, Rate 500 g/ha): 70 | Plant response rating, Cupgrass, Woolly ([5]; preemergence, Rate 125 g/ha): 10 | Plant response rating, Goosegrass ([6]; Rate 62 g/ha): 20 | Plant response rating (0 to 100), Goosegrass ([6]; preemergence, Rate 250 g/ha): 80 | Plant response rating (0 to 100), Goosegrass ([6]; preemergence, Rate 500 g/ha): 90 | Plant response rating, Goosegrass ([6]; preemergence, Rate 125 g/ha): 70 | Plant response rating, Morningglory ([7]; Rate 62 g/ha): 0 | Plant response rating (0 to 100), Morningglory [7, 18]: 100 | Plant response rating, Morningglory ([7]; preemergence, Rate 125 g/ha): 30 | Plant response rating, Morningglory ([7]; preemergence, Rate 250 g/ha): 10 | Plant response rating (0 to 100), Pigweed [8, 19]: 100 | Plant response rating, Pigweed ([8]; Rate 125 g/ha): 100 | Plant response rating, Pigweed ([8]; Rate 250 g/ha): 0 | Plant response rating (0 to 100), Ragweed, Common [9, 19]: 90 | Plant response rating, Ragweed, Common ([9]; Rate 125 g/ha): 0 | Plant response rating, Ragweed, Common ([9]; Rate 250 g/ha): 70 | Plant response rating, Nutsedge ([10]; Rate 62 g/ha): 0 | Plant response rating (0 to 100), Nutsedge [10, 18]: 20 | Plant response rating, Nutsedge ([10]; preemergence, Rate 125 g/ha): 0 | Plant response rating, Nutsedge ([10]; preemergence, Rate 250 g/ha): 20 | Plant response rating, Lambsquarters ([11]; Rate 62 g/ha): 0 | Plant response rating (0 to 100), Lambsquarters [11, 18]: 100 | Plant response rating, Lambsquarters ([11]; preemergence, Rate 125 g/ha): 100 | Plant response rating, Lambsquarters ([11]; preemergence, Rate 250 g/ha): 100 | Plant response rating (0 to 100), Velvetleaf [12, 19]: 40 | Plant response rating, Velvetleaf ([12]; Rate 125 g/ha): 0 | Plant response rating, Velvetleaf ([12]; Rate 250 g/ha): 10 | Plant response rating, Johnsongrass ([13]; Rate 62 g/ha): 0 | Plant response rating (0 to 100), Johnsongrass ([13]; preemergence, Rate 250 g/ha): 0 | Plant response rating (0 to 100), Johnsongrass ([13]; preemergence, Rate 500 g/ha): 40 | Plant response rating, Johnsongrass ([13]; preemergence, Rate 125 g/ha): 0 | Plant response rating (0 to 100), Soybean (soybean (Glycine max); [19]): 20 | Plant response rating, Soybean (soybean (Glycine max); Rate 125 g/ha): 0 | Plant response rating, Soybean (soybean (Glycine max); Rate 250 g/ha): 0 | Plant response rating, Crabgrass ([14]; Rate 62 g/ha): 90 | Plant response rating (0 to 100), Crabgrass ([14]; preemergence, Rate 250 g/ha): 100 | Plant response rating (0 to 100), Crabgrass ([14]; preemergence, Rate 500 g/ha): 100 | Plant response rating, Crabgrass ([14]; preemergence, Rate 125 g/ha): 100 | Plant response rating, Kochia (kochia (Kochia scoparia); Rate 62 g/ha): 30 | Plant response rating (0 to 100), Kochia (kochia (Kochia scoparia); preemergence, Rate 250 g/ha): 90 | Plant response rating (0 to 100), Kochia (kochia (Kochia scoparia); preemergence, Rate 500 g/ha): 100 | Plant response rating, Kochia (kochia (Kochia scoparia); preemergence, Rate 125 g/ha): 100 | Flatsedge plant response rating ([15]; Rate 250 g/ha): 90 | Flatsedge plant response rating ([15]; Rate 500 g/ha): 100 | Plant response rating, Flatsedge ([15]; Rate 62 g/ha): 60 | Plant response rating, Flatsedge ([15]; Rate 125 g/ha): 90 | Barnyardgrass plant response rating ([16]; Rate 250 g/ha): 50 | Barnyardgrass plant response rating ([16]; Rate 500 g/ha): 80 | Plant response rating, Barnyardgrass ([16]; Rate 62 g/ha): 0 | Plant response rating, Barnyardgrass ([16]; Rate 125 g/ha): 50 | Ducksalad plant response rating ([17]; Rate 250 g/ha): 90 | Ducksalad plant response rating ([17]; Rate 500 g/ha): 90 | Plant response rating, Ducksalad ([17]; Rate 62 g/ha): 40 | Plant response rating, Ducksalad ([17]; Rate 125 g/ha): 80
